# According to patent US20230203041A1, “ANTAGONISTS OF THE ADENOSINE A2A RECEPTOR” (AdoRx Therapeutics Limited, priority 2020, published 2023):
# Counter-ions that a name gives are not always drawn.
# How the values were obtained:
# [1] = molecular target: T1, human Adenosine A2a receptor (Homo sapiens, UniProt P29274); test: Adenosine receptor TR-FRET binding assay (CA200645 displacement), A2a; conditions: 100 nM CA200645, CHO cell membranes, 2 hours at room temperature
# T1 construct: expressed in transfected cells; host or cells: CHO cell membranes
# [2] = molecular target: T2, human Adenosine A3 receptor (Homo sapiens, UniProt P0DMS8); test: Adenosine receptor TR-FRET binding assay (CA200645 displacement), A3
# T2 sequence (P0DMS8 1-318): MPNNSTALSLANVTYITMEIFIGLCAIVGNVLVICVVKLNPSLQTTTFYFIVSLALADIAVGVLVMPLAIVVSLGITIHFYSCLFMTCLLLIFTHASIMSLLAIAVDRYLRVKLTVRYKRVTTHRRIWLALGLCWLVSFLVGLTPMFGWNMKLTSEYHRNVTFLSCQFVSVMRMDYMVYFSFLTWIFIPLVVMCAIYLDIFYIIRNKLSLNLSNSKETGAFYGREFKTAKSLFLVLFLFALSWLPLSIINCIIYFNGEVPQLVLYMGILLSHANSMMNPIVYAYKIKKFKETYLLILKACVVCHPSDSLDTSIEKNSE
# [3] = molecular target: T3, human Adenosine A1 receptor (Homo sapiens, UniProt P30542); test: Adenosine receptor TR-FRET binding assay (CA200645 displacement), A1
# T3 sequence (P30542 1-326): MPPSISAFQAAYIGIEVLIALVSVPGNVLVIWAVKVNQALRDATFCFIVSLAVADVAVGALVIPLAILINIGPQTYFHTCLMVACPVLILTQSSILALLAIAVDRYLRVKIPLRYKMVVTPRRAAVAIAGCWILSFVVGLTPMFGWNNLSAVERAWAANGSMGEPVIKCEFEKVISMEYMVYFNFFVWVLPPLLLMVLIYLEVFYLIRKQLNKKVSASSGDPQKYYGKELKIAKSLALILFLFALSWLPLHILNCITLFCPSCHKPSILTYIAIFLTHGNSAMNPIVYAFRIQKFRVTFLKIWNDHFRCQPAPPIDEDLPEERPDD
# [4] = molecular target: T4, human Adenosine A2b receptor (Homo sapiens, UniProt P29275); test: Adenosine receptor TR-FRET binding assay (CA200645 displacement), A2b; conditions: 30 nM CA200645, CHO cell membranes, 2 hours at room temperature
# T4 construct: expressed in transfected cells; host or cells: CHO cell membranes
# T4 sequence (P29275 1-332): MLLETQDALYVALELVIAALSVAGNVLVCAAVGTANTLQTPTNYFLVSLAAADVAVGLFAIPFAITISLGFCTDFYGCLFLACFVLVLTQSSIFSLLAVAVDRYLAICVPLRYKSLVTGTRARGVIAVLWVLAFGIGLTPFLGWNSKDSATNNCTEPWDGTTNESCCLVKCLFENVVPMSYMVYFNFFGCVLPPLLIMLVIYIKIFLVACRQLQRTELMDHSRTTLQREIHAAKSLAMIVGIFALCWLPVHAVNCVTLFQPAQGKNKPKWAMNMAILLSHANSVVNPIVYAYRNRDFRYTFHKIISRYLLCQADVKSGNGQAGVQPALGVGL
# T1 sequence (P29274 whole entry): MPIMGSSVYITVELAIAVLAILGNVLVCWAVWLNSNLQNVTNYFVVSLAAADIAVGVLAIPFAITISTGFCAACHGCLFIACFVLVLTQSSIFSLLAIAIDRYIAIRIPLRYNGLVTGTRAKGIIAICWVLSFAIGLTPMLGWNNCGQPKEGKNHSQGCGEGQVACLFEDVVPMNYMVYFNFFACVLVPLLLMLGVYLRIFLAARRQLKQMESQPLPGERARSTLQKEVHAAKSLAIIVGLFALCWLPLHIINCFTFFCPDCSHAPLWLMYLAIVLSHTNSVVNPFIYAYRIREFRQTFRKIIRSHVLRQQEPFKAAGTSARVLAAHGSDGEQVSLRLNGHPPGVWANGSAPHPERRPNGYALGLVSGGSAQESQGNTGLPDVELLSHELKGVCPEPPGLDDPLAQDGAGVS
Compound,Ki [1],Ki [2],Ki [3],Ki [4]
"Cc1cc(-c2c(-c3cccc(C#N)c3)nn3ccc(N4CCC5(CC4)CNC(=O)C5)nc23)cc(C)n1 [Example 105, 3-[3-(2,6-Dimethyl-4-pyridyl)-5-(3-oxo-2,8-diazaspiro[4.5]decan-8-yl)pyrazolo[1,5-a]pyrimidin-2-yl]benzonitrile]",127 nM,> 1000 nM,776 nM,378 nM
"N#Cc1c(-c2ccco2)nn2ccc(N3CCNCC3)nc12 [Example 41, 2-(2-Furyl)-5-piperazin-1-yl-pyrazolo[1,5-a]pyrimidine-3-carbonitrile]",237 nM,5140 nM,1570 nM,2230 nM
"Cc1cc(-c2c(-c3cccc(C#N)c3)nn3ccc(N)nc23)cc(C)[n+]1[O-] [Example 27, 3-[5-Amino-3-(2,6-dimethyl-1-oxido-pyridin-1-ium-4-yl)pyrazolo[1,5-a]pyrimidin-2-yl]benzonitrile]",1.8 nM,> 1000 nM,4 nM,2 nM
"Cc1cc(-c2c(-c3cccc(C#N)c3)nn3ccc(C(C)(C)O)nc23)cc(Cl)n1 [Example 8, 3-[3-(2-Chloro-6-methyl-4-pyridyl)-5-(1-hydroxy-1-methyl-ethyl)pyrazolo[1,5-a]pyrimidin-2-yl]benzonitrile]",9.9 nM,> 1000 nM,291 nM,41 nM
"N#Cc1c(-c2ncco2)nn2ccc(NCc3ccccc3)nc12 [Example 57, 5-(Benzylamino)-2-oxazol-2-yl-pyrazolo[1,5-a]pyrimidine-3-carbonitrile]",24.7 nM,1870 nM,236 nM,1490 nM
Cc1cc(-c2c(-c3cccc(C#N)c3)nn3ccc(NC4CN5CCC4CC5)nc23)cc(Cl)n1 (stereo not shown) [Example 2.17],2.4 nM,> 1000 nM,45 nM,6 nM
Cc1cc(-c2c(-c3cccc(C#N)c3)nn3ccc(N4CC(C(=O)O)C4)nc23)cc(Cl)n1 [Example 2.35],23.3 nM,2530 nM,305 nM,259 nM
Cc1cc(-c2c(-c3cccc(C#N)c3)nn3ccc(N4CCN(S(N)(=O)=O)CC4)nc23)cc(Cl)n1 [Example 2.37],26.5 nM,> 1000 nM,1410 nM,9 nM
Cc1cc(-c2c(-c3cccc(C#N)c3)nn3ccc(N[C@@H]4CCOC4)nc23)cc(Cl)n1 [Example 2.6],1 nM,> 1000 nM,87 nM,12 nM
"C=C(C)[C@H](C)NC(=O)c1ccn2nc(-c3cccc(C#N)c3)c(-c3cc(C)nc(C)c3)c2n1 [Example 99, 2-(3-Cyanophenyl)-N-[(1S)-1,2-dimethylallyl]-3-(2,6-dimethyl-4-pyridyl)pyrazolo[1,5-a]pyrimidine-5-carboxamide]",0.4 nM,> 1000 nM,99 nM,35 nM
Cc1cc(-c2c(-c3cccc(C#N)c3)nn3ccc(N[C@@H]4CC[C@@H]4O)nc23)cc(Cl)n1 [Example 2.22],6.2 nM,> 1000 nM,109 nM,48 nM
Cc1cc(-c2c(-c3cccc(C#N)c3)nn3ccc(N4CCN[C@@H](C(C)(C)O)C4)nc23)cc(Cl)n1 [Example 2.40],5.7 nM,> 1000 nM,145 nM,23 nM
CO[C@H]1CN(C)C[C@@H]1Nc1ccn2nc(-c3cccc(C#N)c3)c(-c3cc(C)nc(Cl)c3)c2n1 [Example 2.5],0.9 nM,> 1000 nM,24 nM,1 nM
Cc1cc(-c2c(-c3cccc(C#N)c3)nn3ccc(NCc4ncc[nH]4)nc23)cc(Cl)n1 [Example 2.32],17.1 nM,> 1000 nM,593 nM,102 nM
"Cc1cc(-c2c(-c3cccc(C#N)c3)nn3ccc(C(=O)NCC4(C)NC(=O)NC4=O)nc23)c(F)c(C)n1 (stereo not shown) [Example 101, 2-(3-Cyanophenyl)-3-(3-fluoro-2,6-dimethyl-4-pyridyl)-N-[(4-methyl-2,5-dioxo-imidazolidin-4-yl)methyl]pyrazolo[1,5-a]pyrimidine-5-carboxamide]",5 nM,> 1000 nM,1510 nM,13 nM

# The next lines start with the values.
Ki [1],Ki [2],Ki [3],Ki [4],Compound
1 nM,> 1000 nM,150 nM,26 nM,Cc1cc(-c2c(-c3cccc(C#N)c3)nn3ccc(C(=O)NC[C@H]4CCC(=O)N4)nc23)cc(C)n1 [Example 92.9]
360 nM,> 1000 nM,46 nM,108 nM,"Cc1cc(-c2c(-c3cccc(C#N)c3)nn3ccc(N)nc23)cc2ncnn12 [Example 27.5, 3-[5-Amino-3-(5-methyl-[1,2,4]triazolo[1,5-a]pyridin-7-yl)pyrazolo[1,5-a]pyrimidin-2-yl]benzonitrile]"
3.3 nM,1650 nM,9 nM,29 nM,"Cc1cc(-c2c(-c3cccc(C#N)c3)nn3ccc(O[C@@H]4CCCNC4)nc23)cc(Cl)n1 [Example 24.1, 3-[3-(2-Chloro-6-methyl-4-pyridyl)-5-[[(3R)-3-piperidyl]oxy]pyrazolo[1,5-a]pyrimidin-2-yl]benzonitrile]"
134 nM,> 1000 nM,898 nM,61 nM,CCn1nccc1-c1c(-c2cccc(C#N)c2)nn2ccc(N3CCNCC3)nc12 [Example 33.6]
10.8 nM,> 1000 nM,200 nM,15 nM,"Cc1cc(-c2c(-c3cccc(C#N)c3)nn3ccc(NC(=O)N[C@H]4CCNC4)nc23)cc(Cl)n1 [Example 31.1, 1-[3-(2-Chloro-6-methyl-4-pyridyl)-2-(3-cyanophenyl)pyrazolo[1,5-a]pyrimidin-5-yl]-3-[(3S)-pyrrolidin-3-yl]urea trifluoroacetate]"
48.6 nM,> 1000 nM,254 nM,120 nM,CCn1nccc1-c1c(-c2cccc(C#N)c2)nn2ccc(N3CCN(S(C)(=O)=O)CC3)nc12 [Example 33.4]
29.8 nM,771 nM,38 nM,1750 nM,CC(C)(C)OC(=O)N1CCC[C@H]1CNc1ccn2nc(-c3ccco3)c(C#N)c2n1 [Example 37.4]
5.7 nM,> 1000 nM,418 nM,41 nM,"Cc1cc(-c2c(-c3cccc(C#N)c3)nn3ccc(C(N)=O)nc23)cc(C)n1 [Example 5.8, 2-(3-Cyanophenyl)-3-(2,6-dimethyl-4-pyridyl)pyrazolo[1,5-a]pyrimidine-5-carboxamide]"
2.1 nM,> 1000 nM,333 nM,57 nM,Cc1cc(-c2c(-c3cccc(C#N)c3)nn3ccc(C(=O)N[C@@H]4COC[C@H]4O)nc23)cc(C)n1 [Example 92.31]
4.6 nM,> 1000 nM,238 nM,6 nM,"Cc1cc(-c2c(-c3cccc(C#N)c3)nn3ccc(NC(=O)NCCN)nc23)cc(Cl)n1 [Example 31.2, 1-(2-Aminoethyl)-3-[3-(2-chloro-6-methyl-4-pyridyl)-2-(3-cyanophenyl)pyrazolo[1,5-a]pyrimidin-5-yl]urea trifluoroacetate]"
1.2 nM,> 1000 nM,8 nM,3 nM,Cc1cc(-c2c(-c3cccc(C#N)c3)nn3ccc(N[C@@H]4CCNC4)nc23)cc(Cl)n1 [Example 4.3]
54.1 nM,> 1000 nM,583 nM,519 nM,"CC(=O)Nc1cc(-c2c(-c3cccc(C#N)c3)nn3ccc(N)nc23)cc(C)n1 [Example 27.4, N-[4-[5-Amino-2-(3-cyanophenyl)pyrazolo[1,5-a]pyrimidin-3-yl]-6-methyl-2-pyridyl]acetamide]"
4.6 nM,> 1000 nM,151 nM,5 nM,"Cc1cc(-c2c(-c3cccc(C#N)c3)nn3ccc(NC(=O)N[C@@H]4CCNC4)nc23)cc(Cl)n1 [Example 31.3, 1-[3-(2-Chloro-6-methyl-4-pyridyl)-2-(3-cyanophenyl)pyrazolo[1,5-a]pyrimidin-5-yl]-3-[(3R)-pyrrolidin-3-yl]urea trifluoroacetate]"
